Measured values: publication PMC9395446, “First-in-human phase 1/1b study to evaluate sitravatinib in patients with advanced solid tumors” (Investigational New Drugs, 2022)

Test: Safety in phase 1/1b study (DLTs, TRAEs, TEAEs; CTCAE v4.03)
Format: in vivo, human
Text: Safety assessments included evaluation of DLTs, AEs, physical examinations, vital sign measurements, electrocardiogram recordings and laboratory tests.
A DLT was defined as a grade ≥ 4 hematologic abnormality lasting ≥ 4 days; grade 3 thrombocytopenia with clinically significant bleeding; febrile neutropenia; clinically significant grade ≥ 3 non-hematologic AEs not related to underlying malignancy; intolerable grade 2 AEs; or toxicity resulting in an inability to deliver 80% of the dose during the first treatment cycle.
The safety population included all patients who received ≥ 1 dose of sitravatinib. […] The PK evaluable population included all patients with sufficient concentration-time data for PK parameter evaluation. The modified intent-to-treat (mITT) population included all phase 1b patients who received ≥ 1 dose of study drug.

[1] = safety population (N = 193), any grade

COCCNCc1ccc(-c2cc3nccc(Oc4ccc(NC(=O)C5(C(=O)Nc6ccc(F)cc6)CC5)cc4F)c3s2)nc1 [sitravatinib, Sitravatinib]
Abdominal pain TRAE, any grade (Phase 1): 0 n (%) | Abdominal pain TRAE, grade ≥3 (Phase 1): 0 n (%) | Anemia TEAE, any grade (Phase 1): 5 (15.6) n (%) | Anemia TEAE, grade ≥3 (Phase 1): 1 (3.1) n (%) | Any TEAE (Phase 1): 31 (96.9) n (%) | Any TRAE (Phase 1): 24 (75.0) n (%) | Asthenia TEAE, any grade (Phase 1): 4 (12.5) n (%) | Asthenia TEAE, grade ≥3 (Phase 1): 0 n (%) | Back pain TEAE, any grade (Phase 1): 8 (25.0) n (%) | Blood and lymphatic system disorders TEAE, any grade (Phase 1): 7 (21.9) n (%) | Blood and lymphatic system disorders TEAE, grade ≥3 (Phase 1): 2 (6.3) n (%) | Blood creatinine increased TEAE, any grade (Phase 1): 3 (9.4) n (%) | Blood creatinine increased TEAE, grade ≥3 (Phase 1): 0 n (%) | Cardiac disorders TEAE, any grade (Phase 1): 3 (9.4) n (%) | Cardiac disorders TEAE, grade ≥3 (Phase 1): 2 (6.3) n (%) | Constipation TEAE, any grade (Phase 1): 5 (15.6) n (%) | Constipation TEAE, grade ≥3 (Phase 1): 0 n (%) | Constipation TRAE, any grade (Phase 1): 2 (6.3) n (%) | Constipation TRAE, grade ≥3 (Phase 1): 0 n (%) | Cough TEAE, any grade (Phase 1): 12 (37.5) n (%) | Cough TEAE, grade ≥3 (Phase 1): 0 n (%) | Decreased appetite TEAE, any grade (Phase 1): 15 (46.9) n (%) | Decreased appetite TEAE, grade ≥3 (Phase 1): 1 (3.1) n (%) | Decreased appetite TRAE, any grade (Phase 1): 7 (21.9) n (%) | Decreased appetite TRAE, grade ≥3 (Phase 1): 0 n (%) | Dehydration TEAE, any grade (Phase 1): 5 (15.6) n (%) | Dehydration TEAE, grade ≥3 (Phase 1): 1 (3.1) n (%) | Diarrhea TEAE, any grade (Phase 1): 13 (40.6) n (%) | Diarrhea TEAE, grade ≥3 (Phase 1): 3 (9.4) n (%) | Diarrhea TRAE, any grade (Phase 1): 8 (25.0) n (%) | Diarrhea TRAE, grade ≥3 (Phase 1): 2 (6.3) n (%) | Dizziness TEAE, any grade (Phase 1): 5 (15.6) n (%) | Dizziness TRAE, any grade (Phase 1): 2 (6.3) n (%) | Dizziness TRAE, grade ≥3 (Phase 1): 0 n (%) | Dry mouth TEAE, any grade (Phase 1): 6 (18.8) n (%) | Dry mouth TEAE, grade ≥3 (Phase 1): 0 n (%) | Dry mouth TRAE, any grade (Phase 1): 4 (12.5) n (%) | Dry mouth TRAE, grade ≥3 (Phase 1): 0 n (%) | Dysphonia TEAE, any grade (Phase 1): 5 (15.6) n (%) | Dysphonia TEAE, grade ≥3 (Phase 1): 0 n (%) | Dysphonia TRAE, any grade (Phase 1): 2 (6.3) n (%) | Dysphonia TRAE, grade ≥3 (Phase 1): 0 n (%) | Dyspnea TEAE, any grade (Phase 1): 7 (21.9) n (%) | Dyspnea TEAE, grade ≥3 (Phase 1): 3 (9.4) n (%) | Edema peripheral TEAE, any grade (Phase 1): 7 (21.9) n (%) | Edema peripheral TEAE, grade ≥3 (Phase 1): 1 (3.1) n (%) | Endocrine disorders TEAE, any grade (Phase 1): 6 (18.8) 6 (18.8) n (%) | Fatigue TEAE, any grade (Phase 1): 17 (53.1) n (%) | Fatigue TEAE, grade ≥3 (Phase 1): 3 (9.4) n (%) | Fatigue TRAE, any grade (Phase 1): 13 (40.6) n (%) | Fatigue TRAE, grade ≥3 (Phase 1): 1 (3.1) n (%) | Gastrointestinal disorders TEAE, any grade (Phase 1): 25 (78.1) n (%) | Gastrointestinal disorders TEAE, grade ≥3 (Phase 1): 4 (12.5) n (%) | General disorders and administration site conditions TEAE, any grade (Phase 1): 21 (65.6) n (%) | General disorders and administration site conditions TEAE, grade ≥3 (Phase 1): 3 (9.4) n (%) | Headache TEAE, any grade (Phase 1): 9 (28.1) n (%) | Hypertension TEAE, any grade (Phase 1): 11 (34.4) n (%) | Hypertension TEAE, grade ≥3 (Phase 1): 6 (18.8) 6 (18.8) n (%) | Hypertension TRAE, any grade (Phase 1): 8 (25.0) n (%) | Hypertension TRAE, grade ≥3 (Phase 1): 5 (15.6) n (%) | Hypokalemia TEAE, any grade (Phase 1): 3 (9.4) n (%) | Hypokalemia TEAE, grade ≥3 (Phase 1): 0 n (%) | Hypomagnesemia TEAE, any grade (Phase 1): 3 (9.4) n (%) | Hypomagnesemia TEAE, grade ≥3 (Phase 1): 0 n (%) | Hyponatremia TEAE, any grade (Phase 1): 3 (9.4) n (%) | Hyponatremia TEAE, grade ≥3 (Phase 1): 3 (9.4) n (%) | Hypophosphatemia TEAE, any grade (Phase 1): 2 (6.3) n (%) | Hypophosphatemia TEAE, grade ≥3 (Phase 1): 1 (3.1) n (%) | Hypothyroidism TEAE, any grade (Phase 1): 6 (18.8) 6 (18.8) n (%) | Hypothyroidism TRAE, any grade (Phase 1): 3 (9.4) n (%) | Hypothyroidism TRAE, grade ≥3 (Phase 1): 0 n (%) | Infections and infestations TEAE, any grade (Phase 1): 16 (50.0) n (%) | Infections and infestations TEAE, grade ≥3 (Phase 1): 5 (15.6) n (%) | Injury, poisoning, procedural complications TEAE, any grade (Phase 1): 4 (12.5) n (%) | Injury, poisoning, procedural complications TEAE, grade ≥3 (Phase 1): 0 n (%) | Investigations TEAE, any grade (Phase 1): 16 (50.0) n (%) | Investigations TEAE, grade ≥3 (Phase 1): 6 (18.8) n (%) | Lipase increased TEAE, any grade (Phase 1): 3 (9.4) n (%) | Lipase increased TEAE, grade ≥3 (Phase 1): 1 (3.1) n (%) | Metabolism and nutrition disorders TEAE, any grade (Phase 1): 21 (65.6) n (%) | Metabolism and nutrition disorders TEAE, grade ≥3 (Phase 1): 4 (12.5) n (%) | Musculoskeletal and connective tissue disorders TEAE, any grade (Phase 1): 19 (59.4) n (%) | Nausea TEAE, any grade (Phase 1): 13 (40.6) n (%) | Nausea TEAE, grade ≥3 (Phase 1): 1 (3.1) n (%) | Nausea TRAE, any grade (Phase 1): 6 (18.8) n (%) | Nausea TRAE, grade ≥3 (Phase 1): 0 n (%) | Neoplasms benign, malignant, unspecified TEAE, any grade (Phase 1): 3 (9.4) n (%) | Neoplasms benign, malignant, unspecified TEAE, grade ≥3 (Phase 1): 3 (9.4) n (%) | Nervous system disorders TEAE, any grade (Phase 1): 14 (43.8) n (%) | PPE syndrome TEAE, any grade (Phase 1): 4 (12.5) n (%) | PPE syndrome TEAE, grade ≥3 (Phase 1): 1 (3.1) n (%) | PPE syndrome TRAE, any grade (Phase 1): 4 (12.5) n (%) | PPE syndrome TRAE, grade ≥3 (Phase 1): 1 (3.1) n (%) | Pain in extremity TEAE, any grade (Phase 1): 2 (6.3) n (%) | Proteinuria TEAE, any grade (Phase 1): 2 (6.3) n (%) | Proteinuria TRAE, any grade (Phase 1): 2 (6.3) n (%) | Proteinuria TRAE, grade ≥3 (Phase 1): 0 n (%) | Psychiatric disorders TEAE, any grade (Phase 1): 7 (21.9) n (%) | Psychiatric disorders TEAE, grade ≥3 (Phase 1): 1 (3.1) n (%) | Rash TEAE, any grade (Phase 1): 5 (15.6) n (%) | Rash TEAE, grade ≥3 (Phase 1): 0 n (%) | Rash TRAE, any grade (Phase 1): 4 (12.5) n (%) | Rash TRAE, grade ≥3 (Phase 1): 0 n (%) | Renal and urinary disorders TEAE, any grade (Phase 1): 9 (28.1) n (%) | Respiratory, thoracic and mediastinal disorders TEAE, any grade (Phase 1): 22 (68.8) n (%) | Respiratory, thoracic and mediastinal disorders TEAE, grade ≥3 (Phase 1): 4 (12.5) n (%) | Serious TEAE (Phase 1): 9 (28.1) n (%) | Serious TRAE (Phase 1): 3 (9.4) n (%) | Skin and subcutaneous tissue disorders TEAE, any grade (Phase 1): 21 (65.6) n (%) | Skin and subcutaneous tissue disorders TEAE, grade ≥3 (Phase 1): 1 (3.1) n (%) | Stomatitis TEAE, any grade (Phase 1): 4 (12.5) n (%) | Stomatitis TEAE, grade ≥3 (Phase 1): 0 n (%) | Stomatitis TRAE, any grade (Phase 1): 3 (9.4) n (%) | Stomatitis TRAE, grade ≥3 (Phase 1): 0 n (%) | TEAE grade ≥3 (Phase 1): 20 (62.5) n (%) | TEAE leading to death (Phase 1): 3 (9.4) n (%) | TEAE leading to discontinuation (Phase 1): 5 (15.6) n (%) | TEAE leading to treatment modification (Phase 1): 13 (40.6) n (%) | TRAE grade ≥3 (Phase 1): 10 (31.3) n (%) | TRAE leading to death (Phase 1): 0 n (%) | TRAE leading to discontinuation (Phase 1): 2 (6.3) n (%) | TRAE leading to treatment modification (Phase 1): 12 (37.5) n (%) | UTI TEAE, any grade (Phase 1): 3 (9.4) n (%) | UTI TEAE, grade ≥3 (Phase 1): 2 (6.3) n (%) | Vascular disorders TEAE, any grade (Phase 1): 13 (40.6) n (%) | Vascular disorders TEAE, grade ≥3 (Phase 1): 6 (18.8) 6 (18.8) n (%) | Vomiting TEAE, any grade (Phase 1): 11 (34.4) n (%) | Vomiting TEAE, grade ≥3 (Phase 1): 1 (3.1) n (%) | Vomiting TRAE, any grade (Phase 1): 6 (18.8) n (%) | Vomiting TRAE, grade ≥3 (Phase 1): 0 n (%) | Weight decreased TEAE, any grade (Phase 1): 4 (12.5) n (%) | Weight decreased TEAE, grade ≥3 (Phase 1): 0 n (%) | Weight decreased TRAE, any grade (Phase 1): 2 (6.3) n (%) | Weight decreased TRAE, grade ≥3 (Phase 1): 0 n (%) | Recommended dose for further exploration (QD, defined in phase 1b due to tolerability): 120 mg | Maximum tolerated dose (MTD) (daily (QD), phase 1 dose escalation, mTPI method): 150 mg | TRAE leading to death (cardiac arrest) (overall population): 0.5% | Patients with DLT (phase 1, 80 mg): one | Patients with DLT (phase 1, 200 mg): three | DLT-evaluable phase 1 patients with a DLT (phase 1, 10–200 mg): 14.3% | DLT-evaluable phase 1 patients with a DLT (n/N) (phase 1, 10–200 mg): 4/28 | Each reported DLT (fatigue, mucosal inflammation, peripheral sensory neuropathy, PPE syndrome), share of phase 1 population (phase 1, n = 1 each): 3.6% | Discontinuation due to diarrhea, nausea and fatigue (each) (safety population (N = 193)): 2.1% | Grade ≥ 3 TRAE diarrhea (safety population (N = 193)): 10.4% | Grade ≥ 3 TRAE fatigue (safety population (N = 193)): 7.3% | Grade ≥ 3 TRAE hypertension (safety population (N = 193)): 20.7% | Patients discontinued due to TRAEs (safety population (N = 193)): 13.5% | Patients with any TRAE (safety population (N = 193)): 90.2% | Patients with grade ≥ 3 TRAEs (safety population (N = 193)): 53.4% | TRAEs leading to treatment modification (dose reduction or interruption) (safety population (N = 193)): 62.2% | Treatment modification due to PPE syndrome (safety population (N = 193)): 11.9% | Treatment modification due to diarrhea (safety population (N = 193)): 17.6% | Treatment modification due to fatigue (safety population (N = 193)): 15.0% | Treatment modification due to hypertension (safety population (N = 193)): 15.0% | TRAE diarrhea [1]: 50.8% | TRAE fatigue [1]: 43.0% | TRAE hypertension [1]: 40.4% | TRAE nausea [1]: 30.1%
